Where two headings read alike, the source gives them in different places.
How the values were obtained:
other organisms = conditions: FIG. 3
P. aeruginosa biofilms [1] = conditions: FIG. 4, line B
Description: To further study the mechanisms of boric acid-induced dispersion a collaboration with Dr. Karin Sauer, Binghamton University was initiated. […] FIG. 4 depicts a bar graph summarizing the results of experiments directed towards determining the ability of boric acid to disperse P. aeruginosa biofilms. The line designated as B is boric acid, D represents a positive control for dispersion and E a negative control.

P. aeruginosa biofilms [2] = tested on: P. aeruginosa biofilms
Experimental: P. aeruginosa was grown as planktonic and biofilm populations in different growth media for 48-120 h. Antimicrobial agents were tested in different boric acid concentrations. Boric acid controls lacked the antimicrobial compounds. Initial planktonic growth and dispersion were measured as described previously. After dispersion, the disinfectant and boric acid compounds were removed, replaced with sterile growth medium, and growth monitored by being placed into the plate reader and monitoring an increase of turbidity over an 18-36 h period.
Experiments were conducted in order to determine the ability of boric acid to enhance the antimicrobial action of betadine (poly(vinyl pyrrolidone) iodine). Betadine is commonly used as a disinfectant in clinical environments and the low concentration used (0.02% (w/v)) was chosen based on previous work as it has partial biofilm effectiveness. P. aeruginosa biofilms were grown for 2 and 5 days suspended above a shaking water bath. […] The media used consisted of artificial urine and artificial urine supplemented with 2 mM glucose (reflecting average urine chemistry in normal and diabetic patients). Davis minimal media (MM) and Luria-Bertani broth (LB) were used as representative minimal and rich media. Different biofilm incubation times were used as it is known that biofilm susceptibility to dispersion can increase with biofilm age.
The testing protocol involved the use of a 96-well microtiter plate and a programmable plate reader (Biotek Instruments). The plate reader was programmed for incubation at 37 C and would agitate the plate for 15 seconds prior to taking an absorbance reading of each well. Microtiter wells were partially filled (200 μl) with sterile growth media, then were inoculated with 2 μl of an overnight bacterial culture suspension. For each media and disinfection combination there were a minimum of two replicates as well as uninoculated wells (media without bacteria) to monitor contamination. The microtiter plates were covered with a lid and the sides sealed with Parafilm™ to prevent contamination. Plates were placed on a rack (above the water level) in a water bath, and incubated with shaking (150 rpm) for 2 and 5 days. Testing consisted of removing a plate from the incubator, placing in the plate reader for 30 minutes (allowing for evaporation of humidity) and reading the turbidity (evidence of planktonic growth). Culture media and planktonic cells were removed from the wells and 200-μl dispersant solution containing a mixture of boric acid and 0.02% (w/v) betadine suspended in PBS. Betadine was absent in the control samples. The microtiter plate was placed in the plate reader for 30 minutes (allowing for evaporation of humidity) and turbidity measurements taken (increased turbidity was evidence of biofilm dispersion). To measure biofilm survival, the plates were removed from the plate reader, the dispersant liquid removed, and replaced with sterile LB growth media. The plates were then placed in the plate reader and growth measured (increased turbidity) over a minimum 18 h period.

P. aeruginosa PAO-1 = conditions: Luria Broth, R2A broth, Davis minimal media with 0, 0.5, 1.0, 1.5% boric acid, FIG. 3
Experimental: (§1) In most experiments, cultures were grown in 96-well polystyrene microtiter plates as this allowed different growth media and replicates to be tested using an automated plate reader. Growth of suspended (planktonic) bacteria could be measured by the turbidity in the individual microtiter plate chambers (referred to as wells). […] To test for dispersion, the planktonic populations and growth media were removed and replaced with water containing various concentrations of the test compound. Dispersion was observed by an increase in turbidity (due to release of bacteria from biofilms) over 20 minutes.

P. aeruginosa biofilms [3] = conditions: 24 h at 37 C
Experimental: as §1
Experiments were conducted in order to examine the ability of P. aeruginosa biofilms grown on different growth media to be dispersed by boric acid. Here, bacteria were grown for 24 h at 37 C on an orbital shaking plate in a microtiter plate. The media was removed and the adherent P. aeruginosa biofilms were exposed to boric acid, placed in a plate reader and turbidity measured following agitation.

[4] = tested on: monoculture biofilm of Chromobacterium violaceum; conditions: 0.5% boric acid, 2 hours, lightly shaken
Experimental: Test of application: A 0.5% boric acid was injected into a bioreactor containing a monoculture biofilm of Chromobacterium violaceum. The bioreactor was left for 2 hours and lightly shaken.

river water biofilm = conditions: 0.5% boric acid, 60 seconds, FIG. 2B
Experimental: To visualize biofilm dispersion a water sample from the sampling site was collected. A microscope slide was placed in 30 ml of river water to cultivate a biofilm. The biofilm was then viewed under a dark field microscope and a 0.5% concentration of boric acid was applied and left for 60 seconds. FIG. 2A depicts a photograph of a microscope slide of river water with biofilms.

[5] = tested on: Biofilms from a nearby river; conditions: river biofilm on stone, 5 minutes exposure, tested 0%, 0.25%, 0.5%, 1%, 2%, 3%
Experimental: Biofilms are described on the surface of small (15 mm×15 mm) stone.
Biofilms were exposed to various concentrations of Boric Acid. The concentrations used were 0%, 0.25%, 0.5%, 1%, 2%, 3%.
One stone was used per concentration and was measured and weighed for similarity. Each stone was rinsed with sterile H2O to remove any planktonic (not attached to biofilm) bacteria. Each stone was exposed to a known concentration for a time period of 5 minutes and then removed and placed into a separate vial containing 9 ml of sterile water. The vial with after treatment stone in sterile water was then sonicated for 60 seconds to remove any remaining biofilm to be quantified. Sonication served as a mechanical removal for any remaining biofilm.
Media was then placed in 30 C for 48 hrs and growth was quantified through counting colonies.

## OB(O)O [boric acid]
Other organisms
  concentration at which bacterial growth began to be inhibited: ≥ 1.5 % (w/v)
P. aeruginosa biofilms [1]
  ability to disperse biofilms in flow cell: verified the ability of boric acid to disperse P. aeruginosa biofilms
P. aeruginosa biofilms [2]; 5-day old PAO-1 biofilms grown in artificial urine, FIGS. 13 and 14, preliminary
  enhancement of betadine activity against older biofilms: does enhance the activity of betadine
P. aeruginosa biofilms [2]; 2 day old biofilms, artificial urine, boric acid without betadine, FIG. 6
  regrowth after treatment: growth did occur
P. aeruginosa biofilms [2]; artificial urine with glucose, FIG. 7
  effect of boric acid on betadine action: no effect
P. aeruginosa biofilms [2]; at the concentrations listed, preliminary results
  boric acid-induced toxicity: low level of boric acid-induced toxicity
P. aeruginosa biofilms [2]; two-day biofilms, Davis Minimal Media and Luria-Bertani broth, FIGS. 9 and 11
  betadine activity against biofilms in the presence of boric acid: enhanced
P. aeruginosa biofilms [2]; two-day biofilms, Davis Minimal Media and Luria-Bertani broth, FIGS. 10 and 12
  killing by boric acid treatment alone: did not kill P. aeruginosa
P. aeruginosa PAO-1
  ability to grow in the presence of boric acid: grew in the presence of boric acid
P. aeruginosa biofilms [3]; Davis Minimal Media-grown biofilms
  boric acid concentration at which increased turbidity (evidence of dispersion) was seen: 1.0%
P. aeruginosa biofilms [3]; LB-grown biofilms
  dispersion (increased turbidity): no observable dispersion
P. aeruginosa biofilms [3]; R2A-grown biofilms
  boric acid concentration at which increased turbidity (evidence of dispersion) was seen: 0.5%
[4]
  removal of visible biofilm from bioreactor: All visible biofilm was removed
River water biofilm
  biofilm dispersion seen under dark field microscope: dispersed
[5]
  concentration producing the highest percent release of biofilm: 0.5 % (w/v)

From patent US20200296971A1, “COMPOSITIONS AND METHODS FOR DISPERSING BIOFILMS” (Texas State University, priority 2016, published 2020)
